Consider seven compounds from patent US10100076B2, “Modified nucleosides for the treatment of viral infections and abnormal cellular proliferation” (priority 2000, dated 2018).

For series [1], the system named is SUDHL-1 cells (human anaplastic large T-cell lymphoma cell line). Briefly: Prevention of β-D-GA-related cytotoxicity by natural nucleosides, SUDHL-1 cells. To be noted: 50 μM natural nucleoside; SUDHL-1 cells, 3 days; FIG. 4. The format is cell-based. Here is the method: (§1) The prevention of β-D-GA-related cytotoxicity in CEM cells (human T-cell lymphoma) and in the SUDHL-1 cells (human anaplastic large T-cell lymphoma cell line) was studied by adding natural nucleosides. This experiment was initiated by adding 50 μM of natural nucleosides into the media, together with increasing concentration of β-D-GA. CEM cells were seeded at 2500 cells per well and incubated for 4 days (=fast growing cell line with a doubling time of 1.3 days). SUDHL-1 cells were seeded at 10,000 cells/well, and incubated for 3 days (=slow growing cell line, doubling time 3 days). The result of this experiment is plotted in FIG. 4.

Series [2] deals with CEM cells (human T-cell lymphoma). Briefly: Prevention of β-D-GA-related cytotoxicity by natural nucleosides, CEM cells. Format: cell-based. To be noted: 50 μM natural nucleoside, 4 days, plot not shown. The procedure:
as §1

Series [3] concerns Respiratory Syncytial Virus A. Briefly: microbe, parasite or virus in culture. Format: cell-based, Respiratory Syncytial Virus strain A2. To be noted: for EC50: Initial Test, CPE Inhibition (Visual), read-out: EC50, RSV.
Series [4] deals with Respiratory Syncytial Virus A. Briefly: microbe, parasite or virus in culture. Format: cell-based. To be noted: Initial Test, Neutral Red.
The subject of series [5] is Parainfluenza Type 3 Virus. Briefly: organism not typed. To be noted: for EC50: Initial Test, CPE Inhibition (Visual), read-out: EC50, Parainfluenza Type 3 Virus. The format is cell-based, Parainfluenza type 3 virus strain 14702.
In series [6] the test system is Influenza B. Briefly: microbe, parasite or virus in culture. The format is cell-based.
In series [7] the test system is Influenza A (H3N2). Briefly: microbe, parasite or virus in culture. The format is cell-based. To be noted: Initial Test, Neutral Red.
Series [8] relates to rRNA (host RNA polymerase I product). Briefly: rRNA ΔCt in Huh7 replicon cells (effect on host RNA polymerases). To be noted: Table 24, average of n. The method in brief: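 Host RNA polymerase I activity estimated by quantifying rRNA in replicon cells relative to no-drug control, expressed as ΔCt. A specificity parameter is obtained by subtracting the HCV ΔCt and rRNA ΔCt values from each other.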

Series [9] relates to rDNA (host DNA). Briefly: rDNA ΔCt in Huh7 replicon cells (effect on cellular DNA polymerases). To be noted: Table 25, average of N. From the text: In another typical setting, a compound might reduce the host RNA polymerase activity, but not the host DNA polymerase activity. Therefore, quantification of rDNA or beta-actin DNA (or any other host DNA fragment) and comparison with DNA levels of the no-drug control is a relative measurement of the inhibitory effect of the test compound on cellular DNA polymerases.
With the availability of both the HCV ΔCt data and the rDNA ΔCt, a specificity parameter can be introduced. This parameter is obtained by subtracting both ΔCt values from each other.

For series [10], the system named is Influenza A (H3N2). Briefly: microbe, parasite or virus in culture. The format is cell-based.
Series [11] relates to Influenza A (H1N1). Briefly: microbe, parasite or virus in culture. Format: cell-based. To be noted: Initial Test, Neutral Red.
The subject of series [12] is Parainfluenza Type 3 Virus. Briefly: organism not typed. Format: cell-based. To be noted: Initial Test, Neutral Red.
The test system of series [13] is Influenza A (H1N1). Briefly: microbe, parasite or virus in culture. Format: cell-based.
In series [14] the test system is Influenza B. Briefly: microbe, parasite or virus in culture. The format is cell-based. To be noted: Initial Test, Neutral Red.
The subject of series [15] is HCV replicon. Briefly: HCV replicon system in Huh7 cells, replicon RNA by Q-RT-PCR (HCV ΔCt, ΔΔCt). The format is cell-based, hepatitis C virus. To be noted: for Ave. ΔΔCt: HCV RNA ΔCt minus rRNA ΔCt; for Ave. HCV RNA ΔCt: HCV replicon in Huh7 cells; for average ΔΔCt: HCV RNA ΔCt minus rDNA ΔCt. On the technique in general: A replicon is a self-replicating genome or part of one, used to study replication in cells.

For series [16], the system named is Influenza B. The format is cell-based, Influenza B virus B/Beijing/184/93.
The subject of series [17] is Influenza A (H1N1). Format: cell-based, Influenza A virus A/Beijing/262/95.
In series [18] the test system is Influenza A (H3N2). Format: cell-based, Influenza A virus A/Sydney/05/97.
Setting [19] is: Initial Test, CPE Inhibition (Visual).
Where [20] appears, read: Confirmatory Test, Visual (EC50).

Structures are written as SMILES. Structures can show the parent of a compound that is named as a salt. Where two headings read alike, the source gives them in different places.

Take `Nc1ccn([C@@H]2O[C@H](CO)C[C@H]2O)c(=O)n1` (as salt: hemisulfate): the melting point was 202 to 203 °C (dec.).
Regarding `O=c1ccn([C@@H]2O[C@H](CO)[C@@H](O)[C@H]2O)c(=O)[nH]1` [uridine], the “prevention of β-D-GA toxicity, in words” value in [1] and in series [2] was “markedly prevent β-D-GA toxicity” in each case.
As for `Nc1ccn([C@@H]2O[C@H](CO)[C@@H](O)[C@H]2O)c(=O)n1` [cytidine], the “prevention of β-D-GA toxicity, in words” value in [1] and in series [2] was “markedly prevent β-D-GA toxicity” each time.
With `OC[C@H]1O[C@@H](n2cnc3c(Cl)ncnc32)[C@H](O)[C@@H]1O` [β-D-DJ], the EC50 in series [3] was 500 µM; in series [4], over 500 µM; in series [5], over 500 µM; in series [6] (setting [19]) it was 50 µM; in series [7], over 500 µM; in series [10] (setting [19]) it was over 500000 nM. For the same compound, the EC50 in series [11] is over 500 µM; in series [12] it was 500 µM; in series [13] (setting [19]) it was over 500000 nM; in series [14], 110 µM. In addition, the “Ave. rRNA ΔCt” value in [8] was determined as 3.62. In addition, the “Ave. rDNA ΔCt” value in [9] was found to be 2.70. Also, in series [15] (Table 24), the “Ave. ΔΔCt” value is reported as −0.11. Moreover, the “Ave. HCV RNA ΔCt” value in [15] (Table 24, average of n) amounted to 3.51; in series [15] (Table 25, average of N) it was 4.84. Moreover, the “average ΔΔCt” value in series [15] (Table 25) turned out to be 2.14.
In the case of `O=c1nc(NO)ccn1[C@@H]1O[C@H](CO)[C@@H](O)[C@H]1O` [β-D-BS], the EC50 in series [3] was 0.5 µM; in [4] it was under 0.5 µM; in series [5], over 500 µM; in series [6] (setting [20]), 0.6 µM; in series [6] (setting [19]), 0.5 µM; in series [7], 4 µM. Besides, the EC50 in series [10] (setting [20]) came out at 500 nM; in series [10] (setting [19]), 1500 nM; in [11] it was 1.2 µM; in series [12], 40 µM; in [13] (setting [20]), 1300 nM; in [13] (setting [19]) it was 1500 nM. In series [14], this compound registered an EC50 of 1.2 µM. Moreover, in series [3] (summary of Table 23), the “antiviral activity against RSV, in words” value is reported as “some activities against RSV”. In addition, the “antiviral activity against Parainfluenza type 3 virus, in words” value in series [5] (summary of Table 23) is “no activity against Parainfluenza type 3 virus”. Moreover, the “Ave. rRNA ΔCt” value in [8] worked out at 1.05. For the same compound, the “Ave. rDNA ΔCt” value in series [9] is 0.38. Further, the “EC90 (μM), virus yield reduction” value in [16] is 0.6 µM. Further, the “EC90 (virus yield reduction)” value in series [17] stood at 0.4 µM; in series [18], 0.32 µM. In series [13] (summary of Table 23, influenza A and B), the “antiviral activity against influenza A and B, in words” value is “potent in vitro antiviral capacities against influenza A and B”. Further, in [15] (Table 24), the “Ave. ΔΔCt” value came to 3.83. Also, the “Ave. HCV RNA ΔCt” value in [15] (Table 24, average of n) is on record as 4.89; in series [15] (Table 25, average of N) it was 4.81. Besides, the “average ΔΔCt” value in [15] (Table 25) amounted to 4.45.
With `Nc1ccn([C@@H]2O[C@H](CO)C[C@H]2O)c(=O)n1` [β-D-AJ], the EC50 in series [3] was over 500 µM; in [4] it was over 500 µM; in series [5], over 500 µM; in series [6] (setting [19]), 150 µM; in series [7], over 500 µM; in series [10] (setting [19]), over 500000 nM. The concentration for a half-maximal effect (EC50) was 150 µM in [11], over 500 µM in [12], 150000 nM in [13] (setting [19]) and 150 µM in series [14]. Further, in series [8], the “Ave. rRNA ΔCt” value was found to be 1.74. The “Ave. rDNA ΔCt” value in series [9] was 0.43. Further, in series [15] (Table 24), the “Ave. ΔΔCt” value turned out to be 1.18. Besides, the “Ave. HCV RNA ΔCt” value turned out to be 2.92 in series [15] (Table 24, average of n) and 2.75 in [15] (Table 25, average of N). In series [15] (Table 25), the “average ΔΔCt” value worked out at 2.33.
In the case of `O=c1[nH]c(=O)n([C@@H]2O[C@H](CO)[C@@H](O)[C@H]2O)c2nn[nH]c12` (hydrate or solvate), the melting point is 164 to 166 °C (dec.).

In general, melting point refers to the temperature of the solid-liquid transition. As a reminder, the EC50 is the concentration giving half of the maximal effect.
